Assay results reported in patent publication US20250041434A1, “CEA ASSAY FOR PATIENT SELECTION IN CANCER THERAPY” (SANOFI, priority 2021, published 2025).

Legend:
[1] = test system: NSQ NSCLC with high CEACAM5 expression; test: TED13751 clinical study, tumor response (RECIST 1.1) in NSQ NSCLC high CEACAM5 expressers; assay type: in vivo, human; conditions: for anti-tumor activity, in words: participants heavily pre-treated for NSQ NSCLC, study TED13751
Protocol: In this cohort of NSQ NSCLC participants with high CEACAM5 expression on tumor (≥2+ in intensity in ≥50%) expansion cohort NSQ NSCLC, 10 out of 13 responding participants had high baseline circulating CEA (≥100 ng/mL).
Expression of CEACAM5 on tumor was assessed using CEACAM5 IHC test and circulating CEA and CEACAM5 assays for patients enrolled in clinical trial TED13751 (NCT02187848).
Circulating CEA was determined locally using the assay which was of routine use in the institution. In vitro diagnostic CEA assays measure CEA not claiming specificity for CEACAM5.
The study will be divided in […] parts: The Escalation Phase and the Expansion Phase.
The expansion phase will be conducted with every 2 weekly dosing schedule. During the Expansion Phase, the population to be treated will be restricted to patients with advanced diseases in colorectal cancer (CRC), NSQ NSCLC, small cell lung cancer (SCLC), and gastric adenocarcinoma (including signet-ring cell carcinoma subtype as well as esophago-gastric junction (EGJ) adenocarcinomas of the Siewert Types II and III). CEACAM5 expression of ≥2+ in intensity involving ≥50% of the tumor cell population will be documented during pre-screening on the most recent archival tissue sample and using local IHC evaluation for patients potentially eligible for study treatment in the gastric adenocarcinoma cohort. There are 2 independent NSQ NSCLC expansion phase cohorts: The first one (Lung cohort) includes patients with high CEACAM5 expression (≥2+ in intensity involving at least 50% of the tumor cell population). The second cohort (Lung bis cohort) will include patients that pre-screened positive at moderate intensity (≥2+ between ≥1% to <50% of the tumor cell population). The SCLC cohort includes patients with CEACAM5 expression of ≥2+ in intensity involving ≥1% of the tumor cell population. […] Full screening will only be done for archival cases meeting the above definition. No CEACAM5 pre-screening is required for CRC patients potentially eligible for the CRC expansion cohort. The level of CEACAM5 expression will be documented essentially retrospectively and centrally on both archival and fresh (baseline sample) tumor tissues. Confirmation of CEACAM5 tumor expression will be done retrospectively in a central laboratory on fresh tumor tissue collected at baseline (mandatory biopsy in the Expansion Phase only, on all patients with CRC and gastric cancer, and on NSQ NSCLC as well as SCLC patients with a lesion amenable to biopsy). If sufficient archived tumor material is available, a central evaluation will also be done retrospectively to gain knowledge on the variability in evaluation of the expression. The results of the retrospective analyses will have no impact on patients' treatment. It will be used for the better interpretation of the overall response, and as the baseline for comparison with CEACAM5 expression upon progression (exploration for loss of CEACAM5 as mechanism of acquired resistance).
In the Expansion cohorts, the assessment of response to tusamitamab ravtansine is a primary objective. All patients treated in the Expansion Phase must have at least one measurable lesion for inclusion. Tumor assessment will be made at least every 4 cycles. Decision to pursue treatment will be based on the response evaluation made by the Investigator, however, measures of lesions will be collected in the electronic case report forms for a determination of response by Sponsor. A partial or complete response must be confirmed on a second examination done at least 4 weeks apart, in order to be documented as a confirmed response to therapy.
The RECIST v1.1 criteria will be followed for assessment of tumor response.

tumor cells = conditions: see WO 2014/079886; cited from earlier work
[2] = TED13751 Main dose escalation, maximum tolerated dose; assay type: in vivo, human; conditions: q2w, IV infusion
Excerpt: The dose escalation decision will be based on the dose limiting toxicities (DLTs) observed during Cycle 1+Cycle 2 in q2w cycle and during Cycle 1 in q3w cycle, whether related or not to the investigational medicinal product (IMP) in the absence of clear evidence to the contrary after validation by the Study Committee, and if not related to the progression of disease. Before escalating the tusamitamab ravtansine dose to the next level, the safety data, and especially DLTs, ocular and cardiac adverse events (AEs) will be reviewed by the Study Committee. Cumulative toxicities observed on subsequent administrations will also be considered for the dose escalation process and the dose selection decision. […]
For the accelerated dose escalation phase, as well as for the Bayesian EWOC, a minimum of […] duration (˜4 weeks) will be mandatory between the last patient who has received Day 1 of Cycle 1 at DL n, and the first patient who will receive Day 1 of Cycle 1 at DL n+1. The dose determined to be the maximum tolerated dose (MTD) will be tested further in the Expansion cohorts.
The first loading dose tested will be 120 mg/m^2; if this first dose is safe, then dose escalation will proceed to test next 135 mg/m^2, and 150 mg/m^2. […] The determined MTD or safe MAD will be used for CRC-L cohort.

[3] = Phase 1/2 study, heavily pre-treated high CEACAM5 expressers for NSCLC

Tusamitamab ravtansine: immunoconjugate ADC combining humanized anti-CEACAM5 antibody tusamitamab and maytansinoid DM4 via SPDB linker; CAS Registry No. 2254086-60-5
participants who had PR ([1]; 100 mg/m^2 Q2W, 64 participants, RECIST 1.1): 13
overall response rate ([1]; 100 mg/m^2 Q2W, 64 participants, RECIST 1.1, 95% CI: 12.27% to 31.71%): 20.3%
Duration of Response (DoR), in words [1, 3]: competitive
Overall Response Rate (ORR), in words [1, 3]: competitive
Responses (%) ([1]; baseline circulating CEA <5 μg/L (9 patients), 100 mg/m^2 Q2W): 22.2%
Responses (%) ([1]; baseline circulating CEA <100 μg/L (37 patients), 100 mg/m^2 Q2W): 8.1%
Responses (%) ([1]; baseline circulating CEA >3 μg/L (58 patients), 100 mg/m^2 Q2W): 22.4%
Responses (%) ([1]; baseline circulating CEA ≥5 μg/L (53 patients), 100 mg/m^2 Q2W): 20.8%
Responses (%) ([1]; baseline circulating CEA ≥100 μg/L (25 patients), 100 mg/m^2 Q2W): 40.0%
share of the 13 responders with baseline circulating CEA level ≥100 μg/L ([1]; high expressers cohort, 100 mg/m^2 Q2W): 77%
anti-tumor activity, in words [1]: encouraging anti-tumor activity
anti-tumor activity, in words ([1]; listed as tusamitamab ravtansine): Encouraging preliminary anti-tumor activity
cytotoxic activity on tumor cells in vitro (tumor cells): induce cytotoxic activity
maximum tolerated dose (MTD) [2]: 100 mg/m^2
